Laboratory results reported in patent US20150291610A1, “C20' Urea Derivatives of Vinca Alkaloids” (THE SCRIPPS RESEARCH INSTITUTE, priority 2012, published 2015).
Where two headings read alike, the source gives them in different places.

Experiments:
[1] = system: HCT116/VM46 (vinblastine-resistant strain of HCT116, Pgp over-expression) cells; assay: Cell growth inhibition assay, HCT116/VM46; conditions: for IC50: read-out: IC50 (nM) HCT116/VM46, resistant human colon cancer cell line, Pgp over-expression; for fold improvement over vinblastine, HCT116/VM46: relative to vinblastine
Protocol: (§1) A population of cells (>1×10^6 cells/mL as determined with a hemocytometer) was diluted with an appropriate amount of Dulbecco-modified Eagle Medium (DMEM, Gibco) containing 10% fetal bovine serum (FBS, Gibco) to a final concentration of 30,000 cells/mL.
(§2) To each well of a 96-well plate (Corning Costar), 100 μL of the cell-media solution was added with a multichannel pipette. The cultures were incubated at 37° C. in an atmosphere of 5% CO2 and 95% humidified air for 24 hours. The test compounds were added to the plate as follows: test substances were diluted in DMSO to a concentration of 1 mM and 10-fold serial dilutions were performed on a separate 96-well plate. Fresh culture medium (100 μL) was added to each well of cells to constitute 200 μL of medium per well followed by 2 μL of each test agent. Compounds were tested in duplicate (n=2-8 times) at six concentrations between 0-1,000 nM or 0-10,000 nM. Following addition, cultures were incubated for an additional 72 hours.
(§3) The plates were incubated at 37° C. for either 5 minutes (L1210) or 15 minutes (HCT116 and HCT116/VM46).

[2] = system: HCT116 (human colorectal carcinoma) cells; assay: Cell growth inhibition assay, HCT116; assay type: cell-based
Protocol: as §1, §2, §3

[3] = system: L1210 (mouse lymphocytic leukemia) cells; assay: Cell growth inhibition assay, L1210; assay type: cell-based; conditions: L1210 murine leukemia cell line; avg of 4-16 determinations
Protocol: as §1, §2, §3

[4] = HCT116 human colon cancer cell line, avg of 4-16 determinations, read-out: IC50 (nM) HCT116

| SMILES | IC50 [1] | IC50 [2, 4] | IC50 [3] | other results |
| --- | --- | --- | --- | --- |
| CC[C@]1(NC(=O)NCc2ccco2)C[C@@H]2CN(CCc3c([nH]c4ccccc34)[C@@](C(=O)OC)(c3cc4c(cc3OC)N(C)[C@H]3[C@@](O)(C(=O)OC)[C@H](OC(C)=O)[C@]5(CC)C=CCN6CC[C@]43[C@@H]65)C2)C1 [Compound 34] | 530 nM | 5.1 nM | 5.4 nM | – |
| CCC1(NC(=S)Nc2ccccc2)CC2CN(CCc3c([nH]c4ccccc34)C(C(=O)OC)(c3cc4c(cc3OC)N(C)C3C(O)(C(=O)OC)C(OC(C)=O)C5(CC)C=CCN6CCC43C65)C2)C1 (stereo not shown) [Compound 37] | 650 nM | 40 nM | – | – |
| CC[C@]1(NC(=O)NCCO)C[C@@H]2CN(CCc3c([nH]c4ccccc34)[C@@](C(=O)OC)(c3cc4c(cc3OC)N(C)[C@H]3[C@@](O)(C(=O)OC)[C@H](OC(C)=O)[C@]5(CC)C=CCN6CC[C@]43[C@@H]65)C2)C1 [Compound 22] | > 1000 nM | 8.8 nM | 48 nM | – |
| CC[C@]1(NC(=O)Nc2ccc(Cl)cc2)C[C@@H]2CN(CCc3c([nH]c4ccccc34)[C@@](C(=O)OC)(c3cc4c(cc3OC)N(C)[C@H]3[C@@](O)(C(=O)OC)[C@H](OC(C)=O)[C@]5(CC)C=CCN6CC[C@]43[C@@H]65)C2)C1 [Compound 25] | 590 nM | 6.7 nM | 6.2 nM | – |
| CCC1(NC(=S)N(C)C)CC2CN(CCc3c([nH]c4ccccc34)C(C(=O)OC)(c3cc4c(cc3OC)N(C)C3C(O)(C(=O)OC)C(OC(C)=O)C5(CC)C=CCN6CCC43C65)C2)C1 (stereo not shown) [Compound 43] | 250 nM | 8.7 nM | – | activity difference between sensitive HCT116 and vinblastine-resistant HCT116/VM46 ([1]; HCT116/VM46 vs HCT116): 10 fold |
| CC[C@]1(NC)C[C@@H]2CN(CCc3c([nH]c4ccccc34)[C@@](C(=O)OC)(c3cc4c(cc3OC)N(C)[C@H]3[C@@](O)(C(=O)OC)[C@H](OC(C)=O)[C@]5(CC)C=CCN6CC[C@]43[C@@H]65)C2)C1 [Compound 45, 20′-(methylamino)vinblastine] | 8500 nM | 60 nM | – | – |
| CC[C@]1(NC(=O)N2CCSCC2)C[C@@H]2CN(CCc3c([nH]c4ccccc34)[C@@](C(=O)OC)(c3cc4c(cc3OC)N(C)[C@H]3[C@@](O)(C(=O)OC)[C@H](OC(C)=O)[C@]5(CC)C=CCN6CC[C@]43[C@@H]65)C2)C1 [Compound 53] | 50 nM | 0.88 nM | 2.1 nM | – |
| CCNC(=O)NC1(CC)CC2CN(CCc3c([nH]c4ccc(F)cc34)C(C(=O)OC)(c3cc4c(cc3OC)N(C)C3C(O)(C(=O)OC)C(OC(C)=O)C5(CC)C=CCN6CCC43C65)C2)C1 (stereo not shown) [Compound 49] | 70 nM | – | – | fold improvement over vinblastine, HCT116/VM46 [1]: ~10 fold; fold more potent than vinblastine, HCT116 ([2]; relative to vinblastine): at least 10 fold; IC50 ([2]; text values in pM, read-out: IC50 HCT116): 0.62 nM |
| CC[C@]12C=CCN3CC[C@@]4(c5cc([C@@]6(C(=O)OC)C[C@H]7CN(CCc8c6[nH]c6ccccc86)C[C@@](CC)(N(C)C)C7)c(OC)cc5N(C)[C@H]4[C@@](O)(C(=O)OC)[C@@H]1OC(C)=O)[C@@H]32 [Compound 46] | > 10000 nM | 980 nM | – | – |
| CC[C@]1(NC(=O)NC(C)C)C[C@@H]2CN(CCc3c([nH]c4ccccc34)[C@@](C(=O)OC)(c3cc4c(cc3OC)N(C)[C@H]3[C@@](O)(C(=O)OC)[C@H](OC(C)=O)[C@]5(CC)C=CCN6CC[C@]43[C@@H]65)C2)C1 [Compound 17] | 430 nM | 5.7 nM | 5.5 nM | – |
| CC[C@]1(NC(=O)Oc2ccc([N+](=O)[O-])cc2)C[C@@H]2CN(CCc3c([nH]c4ccccc34)[C@@](C(=O)OC)(c3cc4c(cc3OC)N(C)[C@H]3[C@@](O)(C(=O)OC)[C@H](OC(C)=O)[C@]5(CC)C=CCN6CC[C@]43[C@@H]65)C2)C1 [Compound 13] | – | 55 nM | – | – |
| CCCNC(=O)N[C@@]1(CC)C[C@@H]2CN(CCc3c([nH]c4ccccc34)[C@@](C(=O)OC)(c3cc4c(cc3OC)N(C)[C@H]3[C@@](O)(C(=O)OC)[C@H](OC(C)=O)[C@]5(CC)C=CCN6CC[C@]43[C@@H]65)C2)C1 [Compound 16] | 221 nM | 2.7 nM | 6 nM | – |
| CCNC(=O)N[C@@]1(CC)C[C@@H]2CN(CCc3c([nH]c4ccccc34)[C@@](C(=O)OC)(c3cc4c(cc3OC)N(C)[C@H]3[C@@](O)(C(=O)OC)[C@H](OC(C)=O)[C@]5(CC)C=CCN6CC[C@]43[C@@H]65)C2)C1 [Compound 15] | 90 nM | 0.73 nM | 2.1 nM | fold improvement over vinblastine, HCT116/VM46 [1]: 10 fold |
| CC[C@]1(NC(=O)Nc2ccccc2)C[C@@H]2CN(CCc3c([nH]c4ccccc34)[C@@](C(=O)OC)(c3cc4c(cc3OC)N(C)[C@H]3[C@@](O)(C(=O)OC)[C@H](OC(C)=O)[C@]5(CC)C=CCN6CC[C@]43[C@@H]65)C2)C1 [Compound 23] | 390 nM | 5.1 nM | 6.5 nM | – |
| CC[C@]1(NC(=O)Nc2ccc(C)cc2)C[C@@H]2CN(CCc3c([nH]c4ccccc34)[C@@](C(=O)OC)(c3cc4c(cc3OC)N(C)[C@H]3[C@@](O)(C(=O)OC)[C@H](OC(C)=O)[C@]5(CC)C=CCN6CC[C@]43[C@@H]65)C2)C1 [Compound 26] | 330 nM | 4.8 nM | 4.5 nM | – |
| CC[C@]1(NC(=O)NCc2ccccn2)C[C@@H]2CN(CCc3c([nH]c4ccccc34)[C@@](C(=O)OC)(c3cc4c(cc3OC)N(C)[C@H]3[C@@](O)(C(=O)OC)[C@H](OC(C)=O)[C@]5(CC)C=CCN6CC[C@]43[C@@H]65)C2)C1 [Compound 33] | 670 nM | 5.6 nM | 24 nM | – |
| CCNC(=O)N(C)[C@@]1(CC)C[C@@H]2CN(CCc3c([nH]c4ccccc34)[C@@](C(=O)OC)(c3cc4c(cc3OC)N(C)[C@H]3[C@@](O)(C(=O)OC)[C@H](OC(C)=O)[C@]5(CC)C=CCN6CC[C@]43[C@@H]65)C2)C1 [Compound 47] | 8500 nM | 520 nM | – | fold decrease in activity between 15 and 47 ([2]; HCT116): 700 fold |
| CC[C@]1(NC(=O)Nc2ccc(C(F)(F)F)cc2)C[C@@H]2CN(CCc3c([nH]c4ccccc34)[C@@](C(=O)OC)(c3cc4c(cc3OC)N(C)[C@H]3[C@@](O)(C(=O)OC)[C@H](OC(C)=O)[C@]5(CC)C=CCN6CC[C@]43[C@@H]65)C2)C1 [Compound 27] | 610 nM | 7.1 nM | 7.3 nM | – |
| CCC1(NC(=O)Nc2ccc(OC)cc2)CC2CN(CCc3c([nH]c4ccccc34)C(C(=O)OC)(c3cc4c(cc3OC)N(C)C3C(O)(C(=O)OC)C(OC(C)=O)C5(CC)C=CCN6CCC43C65)C2)C1 (stereo not shown) [Compound 28] | 230 nM | 2 nM | 4.9 nM | – |
| CC[C@]1(NC(=O)NC2CCCCC2)C[C@@H]2CN(CCc3c([nH]c4ccccc34)[C@@](C(=O)OC)(c3cc4c(cc3OC)N(C)[C@H]3[C@@](O)(C(=O)OC)[C@H](OC(C)=O)[C@]5(CC)C=CCN6CC[C@]43[C@@H]65)C2)C1 [Compound 21] | 450 nM | 5.4 nM | 5.8 nM | – |
| CCC1(NC(=O)NC)CC2CN(CCc3c([nH]c4ccccc34)C(C(=O)OC)(c3cc4c(cc3OC)N(C)C3C(O)(C(=O)OC)C(OC(C)=O)C5(CC)C=CCN6CCC43C65)C2)C1 (stereo not shown) [Compound 14] | 530 nM | 0.82 nM | 5.7 nM | – |
| CC[C@]1(NC(=O)Nc2ccc(F)cc2)C[C@@H]2CN(CCc3c([nH]c4ccccc34)[C@@](C(=O)OC)(c3cc4c(cc3OC)N(C)[C@H]3[C@@](O)(C(=O)OC)[C@H](OC(C)=O)[C@]5(CC)C=CCN6CC[C@]43[C@@H]65)C2)C1 [Compound 24] | 400 nM | 3.9 nM | 5.7 nM | – |
| CC[C@]1(NC(=S)NC2CCCCC2)C[C@@H]2CN(CCc3c([nH]c4ccccc34)[C@@](C(=O)OC)(c3cc4c(cc3OC)N(C)[C@H]3[C@@](O)(C(=O)OC)[C@H](OC(C)=O)[C@]5(CC)C=CCN6CC[C@]43[C@@H]65)C2)C1 [Compound 36] | 520 nM | 20 nM | – | – |
| CC[C@]1(NC(=O)NC2CC2)C[C@@H]2CN(CCc3c([nH]c4ccccc34)[C@@](C(=O)OC)(c3cc4c(cc3OC)N(C)[C@H]3[C@@](O)(C(=O)OC)[C@H](OC(C)=O)[C@]5(CC)C=CCN6CC[C@]43[C@@H]65)C2)C1 [Compound 18] | 85 nM | 0.73 nM | 3.9 nM | fold improvement over vinblastine, HCT116/VM46 [1]: 10 fold |
| CCN(CC)C(=O)N[C@@]1(CC)C[C@@H]2CN(CCc3c([nH]c4ccccc34)[C@@](C(=O)OC)(c3cc4c(cc3OC)N(C)[C@H]3[C@@](O)(C(=O)OC)[C@H](OC(C)=O)[C@]5(CC)C=CCN6CC[C@]43[C@@H]65)C2)C1 [Compound 40] | 450 nM | 6.7 nM | – | – |
| CCC1(OC(=O)N(C)C)CC2CN(CCc3c([nH]c4ccccc34)C(C(=O)OC)(c3cc4c(cc3OC)N(C)C3C(O)(C(=O)OC)C(OC(C)=O)C5(CC)C=CCN6CCC43C65)C2)C1 (stereo not shown) [Compound 44] | 9100 nM | 4700 nM | – | fold less active than N,N-dimethyl urea or thiourea 39 and 43 ([2]; HCT116): > 1000 fold |
| CC[C@]1(NC(=S)NCCc2ccc(F)cc2)C[C@@H]2CN(CCc3c([nH]c4ccccc34)[C@@](C(=O)OC)(c3cc4c(cc3OC)N(C)[C@H]3[C@@](O)(C(=O)OC)[C@H](OC(C)=O)[C@]5(CC)C=CCN6CC[C@]43[C@@H]65)C2)C1 [Compound 38] | 750 nM | 60 nM | – | – |
